US20170204197A1, “Goodpasture Antigen Binding Protein Detection and Inhibition and its Use in Diabetes” (FibroStatin, S.L., priority 2013, published 2017)

Experiments:
[1] = tested on: A549 cells; assay: Glucose uptake by A549 cells under increased extracellular glucose (FIG. 2B); type: cell-based; conditions: DMEM:F-12 (315 mg glucose/dL), increasing concentrations of T12, 14 h
Experimental: (§1) FIG. 2. […] A, A549 cells were cultured in DMEM plus 10% fetal bovine serum and penicillin/streptomycin with the indicated concentrations of glucose during 24 h. Then cells were lysed in 25 mM Tris-HCl pH 7.5, 150 mM NaCl, 1% Triton X-100, 0.1% SDS, 1 mM PMSF, 10 μg/mL leupeptin, 20 mM NaF at 4° C. during 30 min. Lysates were cleared by centrifugation at 16,000×g for 5 min (4° C.) and the protein concentration of supernatants was determined (Bio-Rad). […] Development was performed with Amersham ECL Prime Western Blotting Detection Reagent (GE Healthcare Lifesciences) and image acquisition with an ImageQuant LAS 4000 Mini device (GE Healthcare Lifesciences). […] After incubations cells were lysed as in A and protein concentrations in supernatants were similarly assessed. Glucose concentrations in the media were determined at the beginning and at the end of the incubation period with a Glucocard G+ meter (Arkray Factory, Inc.), and glucose uptake by cells was calculated using the protein concentrations of the corresponding lysates for normalization purposes.
(§2) A, A549 cells were cultured in DMEM plus 10% fetal bovine serum and penicillin/streptomycin with the indicated concentrations of glucose during 24 h. […] Lysates were cleared by centrifugation at 16,000×g for 5 min (4° C.) and the protein concentration of supernatants was determined (Bio-Rad). […]

[2] = tested on: AS160 protein phosphorylated at Ser 318 (P Ser 318 AS160); assay: Western blot for AS160 phosphorylated at Ser 318 in A549 lysates (FIG. 2C); type: cell-based; conditions: A549 cells, DMEM:F-12 (315 mg glucose/dL), T12 50 μM, 20 h
Experimental: as §1, §2

[3] = tested on: C2Cl2 mouse myoblasts differentiated to myotubes; assay: Glucose concentration in media of C2Cl2 myotubes at physiological glucose (FIG. 3); type: cell-based; conditions: initial glucose 115 mg/dL, T12 50 μM, indicated times
Experimental: C2Cl2 mouse myoblasts were differentiated to myotubes in DMEM supplemented with 2% horse serum and penicillin/streptomycin during 10 days, and then incubated in DMEM plus 0.25% horse serum with an initial glucose concentration of 115 mg/dL, in absence or presence of T12 (50 μM) during the indicated times. Glucose concentrations in media were determined with a Glucocard™ G+ meter (Arkray Factory, Inc.). Shown are means±SEM (n=2). […] C2Cl2 mouse myoblasts were differentiated to myotubes in DMEM supplemented with 2% horse serum and penicillin/streptomycin during 10 days, and then incubated in DMEM plus 0.25% horse serum with an initial glucose concentration of 115 mg/dL, in absence or presence of T12 (50 μM) during the indicated times. Glucose concentrations in media were determined with a Glucocard™ G+ meter (Arkray Factory, Inc.). Shown are means±SEM (n=2).

[4] = molecular target: T1, GPBP (Homo sapiens, UniProt Q9Y5P4); conditions: from WO 2004/070025, WO 2011/054530, U.S. Pat. No. 8,586,776, WO2014/006020; cited from earlier work
T1 sequence (Q9Y5P4 1-624): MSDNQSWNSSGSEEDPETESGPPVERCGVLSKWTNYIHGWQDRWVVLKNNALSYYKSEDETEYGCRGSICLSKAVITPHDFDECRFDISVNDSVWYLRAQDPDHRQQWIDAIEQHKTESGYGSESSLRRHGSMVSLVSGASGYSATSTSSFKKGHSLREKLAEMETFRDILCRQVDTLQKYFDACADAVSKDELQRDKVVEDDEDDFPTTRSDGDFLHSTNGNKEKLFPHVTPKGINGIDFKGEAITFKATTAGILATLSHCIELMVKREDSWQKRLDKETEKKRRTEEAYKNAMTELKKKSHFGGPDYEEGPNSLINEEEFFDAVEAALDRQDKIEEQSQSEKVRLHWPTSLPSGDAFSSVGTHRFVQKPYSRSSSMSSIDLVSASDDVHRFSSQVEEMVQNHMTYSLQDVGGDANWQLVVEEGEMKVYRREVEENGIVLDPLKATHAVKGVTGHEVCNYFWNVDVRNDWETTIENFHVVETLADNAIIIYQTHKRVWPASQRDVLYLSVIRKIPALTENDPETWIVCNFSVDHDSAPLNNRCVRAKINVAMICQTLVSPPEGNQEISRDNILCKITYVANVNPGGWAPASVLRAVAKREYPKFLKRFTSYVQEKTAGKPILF

Molecule | glucose uptake [1] | phosphorylation of AS160 (Ser 318) [2] | extracellular glucose levels [3] | inhibition of GPBP kinase activity [4]
COc1ccc(-c2ccc(-c3cccc(C)c3)c(C)c2)c(CCC(=O)O)c1 [T12, 3-[4″-methoxy-3,2′-dimethyl-(1,1′;4′,1″)terphenyl-2″-yl]propionic acid] | progressively enhanced glucose uptake | induced phosphorylation of AS160 | reduced the extracellular glucose levels in a concentration-dependent manner | –
COc1cccc2c1C(=O)c1c(O)c3c(c(O)c1C2=O)C[C@@](O)(C(=O)CO)C[C@@H]3O[C@H]1C[C@H](N)[C@H](O)[C@H](C)O1 [doxorubicin] | – | – | – | inhibit GPBP kinase activity
Q2: isolated peptide representing 260SHCIE264 and flanking regions (LATLSHCIELMVKR) (SEQ ID NO: 8) | – | – | – | efficiently inhibited GPBP kinase activity
